Reference: US9593113B2, “Imide and acylurea derivatives as modulators of the glucocorticoid receptor” (BRISTOL-MYERS SQUIBB COMPANY, priority 2013, dated 2017)
Where two headings read alike, the source gives them in different places.

Columns and labels:
[1] = system: AP-1 induced transcriptional activity; experiment: Cellular transrepressional assay (AP-1 luciferase reporter, PMA-activated A549 cell); assay type: cell-based; details: for EC50: read-out: AP-1 (EC50, nM) (measured in cellular transrepression assay)
Method: To measure the ability of test molecules to inhibit AP-1 induced transcriptional activity we utilized an A549 cell which was stably transfected with a plasmid containing 7×AP-1 DNA binding sites (pAP-1-Luc plasmid, Stratagene Co., La Jolla, Calif.) followed by the gene for luciferase. Cells were activated with 10 ng/ml of phorbol myristic acid (PMA) plus or minus test molecules for 7 hours. After 7 hours a luciferase reagent was added to measure luciferase enzymatic activity in the cell. After a 10 minute incubation of luciferase reagent with cells, luminescence was measured in a TOPCOUNT® luminescence counter. Repression of AP-1 activity was calculated as the percentage decrease in the signal induced by PMA alone. Test molecules were analyzed in the concentration range from 0.1 nM to 40 μM. EC50s were determined by using standard curve fitting methods such as Excel fit (Microsoft Co.). An EC50 is the test molecule concentration at which there is a 50% repression of the maximal inhibition of transcription, i.e., a 50% reduction of AP-1 activity.

[2] = target: human full-length glucocorticoid receptor (Homo sapiens (Human), UniProt P04150); experiment: Glucocorticoid Receptor Binding Assay (II), fluorescence polarization competitor kit
Method: In order to measure the binding of compounds on the glucocorticoid receptor a commercially available kit was used (Glucocorticoid receptor competitor assay kit, PanVera Co., Madison, Wis., P2816). Briefly, a cell lysate containing recombinantly expressed human full-length glucocorticoid receptor was mixed with a fluorescently labeled glucocorticoid (1 nM Fluormone GS1) in the presence or absence of test compound. After one hour at room temperature, the fluorescence polarization (FP) of the samples were measured.

[3] = A549 cell, 10 ng/ml PMA, 7 hours
[4] = read-out: GR (Ki, nM) (measured in GR binding Assay II)
[5] = Homo sapiens, A549 cell, 10 ng/ml PMA, 7 hours

human full-length glucocorticoid receptor, sequence (P04150 whole entry): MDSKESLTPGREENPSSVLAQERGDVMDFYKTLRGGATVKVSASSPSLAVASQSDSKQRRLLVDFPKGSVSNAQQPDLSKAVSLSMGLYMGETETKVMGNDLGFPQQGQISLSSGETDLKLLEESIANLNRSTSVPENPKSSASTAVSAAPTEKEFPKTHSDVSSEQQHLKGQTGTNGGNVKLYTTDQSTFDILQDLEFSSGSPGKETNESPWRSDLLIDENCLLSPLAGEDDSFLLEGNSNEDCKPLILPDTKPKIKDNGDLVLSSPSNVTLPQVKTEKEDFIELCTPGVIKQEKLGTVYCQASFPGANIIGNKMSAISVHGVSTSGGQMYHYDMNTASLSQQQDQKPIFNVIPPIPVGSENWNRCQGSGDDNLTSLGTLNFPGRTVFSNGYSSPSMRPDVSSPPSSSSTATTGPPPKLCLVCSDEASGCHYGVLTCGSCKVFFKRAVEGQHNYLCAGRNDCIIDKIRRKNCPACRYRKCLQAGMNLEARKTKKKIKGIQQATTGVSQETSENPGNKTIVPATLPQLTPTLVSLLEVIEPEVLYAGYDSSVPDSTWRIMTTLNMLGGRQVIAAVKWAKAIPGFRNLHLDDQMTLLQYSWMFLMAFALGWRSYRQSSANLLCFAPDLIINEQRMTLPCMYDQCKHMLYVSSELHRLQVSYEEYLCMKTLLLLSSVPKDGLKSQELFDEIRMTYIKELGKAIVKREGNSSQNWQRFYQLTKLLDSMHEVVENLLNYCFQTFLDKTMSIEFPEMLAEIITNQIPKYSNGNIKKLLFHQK

SMILES	AP-1 Max % inhibition (measured in cellular transrepression assay) [1, 3]	EC50 [1, 3]	Ki [2, 4]	EC50 [1, 5]	AP-1 Max % inhibition (measured in cellular transrepression assay) [1]	EC50 [1]	Ki [2]
CC(=O)Nc1ccc(-c2ccc3c(n2)Oc2ccccc2[C@@H]3C(C)(C)C(=O)NC(N)=O)cn1 [Example 66]	36.83%	39.7 nM	2.66 nM	–	–	–	–
CC(C)(C(=O)NC(N)=O)[C@@H]1c2ccc(-c3ccc(S(C)(=O)=O)cc3)nc2Oc2c(F)cccc21 [Example 33]	64.54%	5.82 nM	0.59 nM	–	–	–	–
CCS(=O)(=O)c1ccc(-c2ccc3c(n2)Oc2c(F)cccc2[C@@H]3C(C)(C)C(=O)NC(N)=O)cc1 [Example 31]	56.84%	5.55 nM	0.43 nM	–	–	–	–
CC(C)S(=O)(=O)c1ccc(-c2ccc3c(n2)Oc2c(F)cccc2[C@@H]3C(C)(C)C(=O)NC(N)=O)cc1 [Example 32]	59.56%	4.89 nM	3.55 nM	–	–	–	–
CC(C)(C(=O)NC(N)=O)[C@H]1c2ccccc2Oc2nc(-c3ccc(C(=O)N4CCC(F)(F)C4)c(F)c3)ccc21 [Example 49]	67.00%	13.3 nM	1.09 nM	–	–	–	–
CC(=O)NC(=O)C(C)(C)[C@@H]1c2ccc(-c3ccc(C(=O)N4CCCC4)cc3)nc2Oc2c(F)cccc21 [Example 8]	64.35%	5.97 nM	3.59 nM	–	–	–	–
CC(C)Oc1ccc(-c2ccc3c(n2)Oc2ccccc2[C@@H]3C(C)(C)C(=O)NC(N)=O)cn1 [Example 57]	73.98%	128 nM	4.23 nM	–	–	–	–
CC(C)(C(=O)NC(N)=O)[C@H]1c2ccccc2Oc2nc(-c3ccc(C(=O)N4CCC(F)(F)C4)c(Cl)c3)ccc21 [Example 53]	28.67%	2500 nM	369 nM	–	–	–	–
CC(C)(O)c1ccc(-c2ccc3c(n2)Oc2ccccc2[C@@H]3C(C)(C)C(=O)NC(N)=O)cc1 [Example 70]	79.50%	–	1.19 nM	8.94 nM	–	–	–
CC(C)(C(=O)NC(N)=O)[C@H]1c2ccccc2Oc2nc(-c3ccncc3)ccc21 [Example 72]	37.36%	–	4.71 nM	36 nM	–	–	–
CC(C)(C(=O)NC(N)=O)C1c2ccccc2Oc2ccccc21 [Example 75]	10.32%	–	32 nM	5000 nM	–	–	–
CC(C)(C(=O)NC(N)=O)[C@H]1c2ccccc2Oc2nc(-c3cc[n+]([O-])cc3)ccc21 [Example 76]	23.09%	327 nM	119 nM	–	–	–	–
CC(C)(C(=O)NC(N)=O)[C@H]1c2ccccc2Oc2nc(-c3ccc(C(=O)N4CCC(F)(F)C4)cc3)ccc21 [Example 50]	69.26%	15.3 nM	1.76 nM	–	–	–	–
CC(C)Nc1ccc(-c2ccc3c(n2)Oc2c(F)cccc2[C@@H]3C(C)(C)C(=O)NC(N)=O)cn1 [Example 60]	–	–	1.13 nM	–	66.44%	2.9 nM	–
CC(C)(C(=O)NC(N)=O)[C@@H]1c2ccc(-c3ccc(C(=O)N4CC[C@@H](F)C4)cc3)nc2Oc2c(F)cccc21 [Example 85]	76.00%	–	1.2 nM	0.8 nM	–	–	–
CC(=O)Nc1ccc(-c2ccc3c(n2)Oc2c(F)cccc2[C@@H]3C(C)(C)C(=O)NC(N)=O)cn1 [Example 61]	39.15%	31.1 nM	4.26 nM	–	–	–	–

SMILES	AP-1 Max % inhibition (measured in cellular transrepression assay) [1, 3]	EC50 [1, 3]	Ki [2, 4]	EC50 [1, 5]	AP-1 Max % inhibition (measured in cellular transrepression assay) [1]	EC50 [1]	Ki [2]
CC(C)(C(=O)NC(N)=O)[C@@H]1c2ccc(-c3ccc(N4CCCCC4)nc3)nc2Oc2c(F)cccc21 [Example 64]	–	–	1.7 nM	–	44.43%	72.5 nM	–
CC(C)(C(=O)NC(N)=O)[C@@H]1c2ccc(-c3ccc(-n4cnnn4)cc3)nc2Oc2c(F)cccc21 [Example 45]	55.41%	7.77 nM	0.82 nM	–	–	–	–
COc1ccc(CNC(=O)NC(=O)C(C)(C)[C@@H]2c3ccc(-c4ccc(C(C)(C)O)cc4)nc3Oc3c(F)cccc32)cc1 [Example 29]	51.82%	–	3.33 nM	646 nM	–	–	–
CC(C)Oc1ccc(-c2ccc3c(n2)Oc2c(F)cccc2[C@@H]3C(C)(C)C(=O)NC(N)=O)cc1F [Example 35]	54.04%	7.5 nM	0.4 nM	–	–	–	–
CN(C)c1ccc(-c2ccc3c(n2)Oc2ccccc2[C@@H]3C(C)(C)C(=O)NC(N)=O)cn1 [Example 58]	45.16%	72.6 nM	24.9 nM	–	–	–	–
CC(C)(C(=O)NC(N)=O)[C@@H]1c2ccc(-c3ccc(NC4CC4)nc3)nc2Oc2c(F)cccc21 [Example 62]	64.75%	8.24 nM	1.15 nM	–	–	–	–
CNC(=O)NC(=O)C(C)(C)[C@@H]1c2ccc(-c3ccc(N4CCOCC4)nc3)nc2Oc2c(F)cccc21 [Example 27]	16.38%	–	10.9 nM	5000 nM	–	–	–
CC(C)(C(=O)NC(N)=O)[C@H]1c2ccccc2Oc2nc(-c3ccc(C(=O)N4CCCC4)nc3)ccc21 [Example 54]	55.36%	67.2 nM	7.65 nM	–	–	–	–
CC(C)(C(=O)NC(N)=O)[C@H]1c2ccccc2Oc2nc(-c3ccc(C(=O)N4CCCC4)cc3)ccc21 [Example 40]	68.22%	8.69 nM	1.93 nM	–	–	–	–
CC(C)Oc1ccc(-c2ccc3c(n2)Oc2c(F)cccc2[C@@H]3C(C)(C)C(=O)NC(N)=O)cn1 [Example 68]	61.39%	–	–	8.57 nM	–	–	0.63 nM
CNC(=O)NC(=O)C(C)(C)[C@@H]1c2ccc(-c3ccc(C(=O)N4CCCC4)cc3)nc2Oc2c(F)cccc21 [Example 11]	46.34%	29.6 nM	4.44 nM	–	–	–	–
CCC(=O)NC(=O)C(C)(C)[C@@H]1c2ccc(Cl)nc2Oc2c(F)cccc21 [Example 1]	17.32%	–	42.7 nM	5000 nM	–	–	–
CC(C)(C(=O)NC(N)=O)[C@H]1c2ccccc2Oc2nc(-c3ccc(C(=O)N4CCCC4)c(F)c3)ccc21 [Example 51]	65.20%	13.2 nM	1.34 nM	–	–	–	–
CC(C)(C(=O)NC(N)=O)[C@@H]1c2ccc(-c3ccc(C(=O)O)nc3)nc2Oc2c(F)cccc21 [Example 63]	39.61%	142 nM	10.8 nM	–	–	–	–
CC(C)Oc1ccc(-c2ccc3c(n2)Oc2c(F)cccc2[C@@H]3C(C)(C)C(=O)NC(N)=O)cc1 [Example 34]	68.62%	1.24 nM	0.25 nM	–	–	–	–
CCS(=O)(=O)c1ccc(-c2ccc3c(n2)Oc2c(F)cccc2[C@@H]3C(C)(C)C(=O)NC(=O)NC)cc1 [Example 12]	36.42%	85.7 nM	5.04 nM	–	–	–	–
